Assay results published in patent publication US20120129811A1, “TRICYCLIC INHIBITORS OF PRO-MATRIX METALLOPROTEINASE ACTIVATION” (priority 2010, published 2012).
Counter-ions that a name gives are not always drawn.

Assays:
[1] = target: T1, proMMP9(67-444;ΔFnII) (SEQ ID NO:5) (Homo sapiens, UniProt P14780, DEL216-390); assay: ThermoFluor binding assay with proMMP9(67-444;ΔFnII)
T1 construct: start methionine (N); made in house; host or cells: E. coli BL21(DE3) RIL
T1 sequence (P14780 with tags, fused parts or gaps DEL216-390): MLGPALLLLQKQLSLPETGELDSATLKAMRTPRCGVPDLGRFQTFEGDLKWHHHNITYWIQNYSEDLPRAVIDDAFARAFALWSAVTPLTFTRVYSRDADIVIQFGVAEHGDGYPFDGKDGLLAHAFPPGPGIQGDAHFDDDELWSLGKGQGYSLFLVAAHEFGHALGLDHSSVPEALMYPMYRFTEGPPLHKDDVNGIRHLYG
Description: (§1) The ThermoFluor® (TF) assay is a 384-well plate-based binding assay that measures thermal stability of proteins (Biomol Screen 2001, 6, 429-40; Biochemistry 2005, 44, 5258-66). The experiments were carried out using instruments available from Johnson & Johnson Pharmaceutical Research & Development, LLC. TF dye used in all experiments was […] (1,8-ANS) (Invitrogen: A-47).
(§2) Compounds were arranged in a pre-dispensed plate (Greiner Bio-one: 781280), wherein compounds were serially diluted in 100% DMSO across 11 columns within a series. Columns 12 and 24 were used as DMSO reference and contained no compound. For multiple compound concentration-response experiments, the compound aliquots (50 nL) were robotically predispensed directly into black 384-well polypropylene PCR microplates (Abgene: TF-0384/k) using a Cartesian Hummingbird liquid handler (DigiLab, Holliston, Mass.). Following compound dispense, protein and dye solutions were added to achieve the final assay volume of 3 μL. The assay solutions were overlayed with 1 μL of silicone oil (Fluka, type DC 200: 85411) to prevent evaporation.
(§3) Assay plates were robotically loaded onto a thermostatically controlled PCR-type thermal block and then heated from 40 to 90° C. at a ramp-rate of 1° C./min for all experiments. Fluorescence was measured by continuous illumination with UV light (Hamamatsu LC6) supplied via fiber optics and filtered through a band-pass filter (380-400 nm; >60D cutoff). Fluorescence emission of the entire 384-well plate was detected by measuring light intensity using a CCD camera (Sensys, Roper Scientific) filtered to detect 500±25 nm, resulting in simultaneous and independent readings of all 384 wells. A single image with 20-sec exposure time was collected at each temperature, and the sum of the pixel intensity in a given area of the assay plate was recorded vs temperature and fit to standard equations to yield the Tm (J Biomol Screen 2001, 6, 429-40).
(§4) Thermodynamic parameters necessary for fitting compound binding for each proMMP were estimated by differential scanning calorimetry (DSC) and from ThermoFluor® data. The heat capacity of unfolding for each protein was estimated from the molecular weight and from ThermoFluor® dosing data.
ThermoFluor® with proMMP9(67-444;ΔFnM (SEQ ID NO:5)
The protein sample preparations had to include a desalting buffer exchange step via a PD-10 gravity column (GE Healthcare). The desalting buffer exchange was performed prior to diluting the protein to the final assay concentration of 3.5 μM proMMP9(67-444;ΔFnII) (SEQ ID NO:5). The concentration of proMMP9(67-444;ΔFnII) (SEQ ID NO:5) was determined spectrophotometrically based on a calculated extinction coefficient of ε280=33900 M^−1 cm^−1, a calculated molecular weight of 22.6 kDa, and calculated pI of 5.20. ThermoFluor® reference conditions were defined as follows: 80 μg/mL (3.5 μM) proMMP9(67-444;ΔFnII) (SEQ ID NO:5), 50 μM 1,8-ANS, pH 7.0 Buffer (50 mM HEPES pH 7.0, 100 mM NaCl, 0.001% Tween-20, 2.5 mM MgCl2, 300 μM CaCl2). The thermodynamic parameters for proMMP9(67-444;ΔFnII) (SEQ ID NO:5) are as follows: Tm (° C.)=63 (+/−0.1), ΔUH(Tm)(cal mol^−1)=105000(+/−5000), ΔUS(Tm) (cal mol^−1 K^−1)=450, ΔUCp (cal mol^−1 K^−1)=2000.

[2] = target: T2, full-length proMMP9(1-707) activation by catalytic MMP3 (Homo sapiens, UniProt P14780, R574P); assay: proMMP9/MMP3 P126 Activation Assay; type: biochemical
T2 construct: made in house; host or cells: proMMP9: HEK293 (secreted); MMP3: E. coli
Description: proMMP9/MMP3 P126 Activation Assay
The reaction volume was 50 μL. […] Reactivity of residual MMP3 towards P-126 substrate was minimal under these conditions.

[3] = target: T3, proMMP9(20-445;ΔFnII) (SEQ ID NO:6) (Homo sapiens, UniProt P14780, DEL216-390); assay: ThermoFluor binding assay with proMMP9(20-445;ΔFnII)
T3 construct: start methionine (N); made in house; host or cells: E. coli BL21(DE3) RIL
T3 sequence (P14780 with tags, fused parts or gaps DEL216-390): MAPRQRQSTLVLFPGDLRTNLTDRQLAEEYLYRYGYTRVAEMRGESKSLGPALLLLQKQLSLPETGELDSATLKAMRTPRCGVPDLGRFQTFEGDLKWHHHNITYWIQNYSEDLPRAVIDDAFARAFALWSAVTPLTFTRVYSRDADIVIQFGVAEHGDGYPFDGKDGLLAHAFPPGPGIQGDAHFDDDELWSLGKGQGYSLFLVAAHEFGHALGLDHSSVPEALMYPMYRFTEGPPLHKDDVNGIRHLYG
Description: as §1, §2, §3, §4
ThermoFluor® with proMMP9(20-445; ΔFnII (SEQ ID NO:6)
The protein sample preparations included a desalting buffer exchange step via a PD-10 gravity column (GE Healthcare). The desalting buffer exchange was performed prior to diluting the protein to the final assay concentration of 2.8 μM proMMP9(20-445;ΔFnII) (SEQ ID NO:6). The concentration of proMMP9(20-445;ΔFnII) (SEQ ID NO:6) was determined spectrophotometrically based on a calculated extinction coefficient of ε280=39880 M^−1 cm^−1, a calculated molecular weight of 28.2 kDa, and calculated pI of 5.5. ThermoFluor® reference conditions were define as follows: 80 μg/mL (2.8 μM) proMMP9(20-445;ΔFnII) (SEQ ID NO:6), 50 μM 1,8-ANS, pH 7.0 Buffer (50 mM HEPES pH 7.0, 100 mM NaCl, 0.001% Tween-20, 2.5 mM MgCl2, 300 μM CaCl2). The thermodynamic parameters for proMMP9(20-445;ΔFnII) (SEQ ID NO:6) are as follows: Tm (° C.)=72 (+/−0.1), ΔUH(Tm) (cal mol^−1)=160000(+/−5000), ΔUSTm (cal mol^−1 K^−1)=434, ΔUCp (cal mol^−1 K^−1)=2400.

T2 sequence (P14780 20-707 R574P): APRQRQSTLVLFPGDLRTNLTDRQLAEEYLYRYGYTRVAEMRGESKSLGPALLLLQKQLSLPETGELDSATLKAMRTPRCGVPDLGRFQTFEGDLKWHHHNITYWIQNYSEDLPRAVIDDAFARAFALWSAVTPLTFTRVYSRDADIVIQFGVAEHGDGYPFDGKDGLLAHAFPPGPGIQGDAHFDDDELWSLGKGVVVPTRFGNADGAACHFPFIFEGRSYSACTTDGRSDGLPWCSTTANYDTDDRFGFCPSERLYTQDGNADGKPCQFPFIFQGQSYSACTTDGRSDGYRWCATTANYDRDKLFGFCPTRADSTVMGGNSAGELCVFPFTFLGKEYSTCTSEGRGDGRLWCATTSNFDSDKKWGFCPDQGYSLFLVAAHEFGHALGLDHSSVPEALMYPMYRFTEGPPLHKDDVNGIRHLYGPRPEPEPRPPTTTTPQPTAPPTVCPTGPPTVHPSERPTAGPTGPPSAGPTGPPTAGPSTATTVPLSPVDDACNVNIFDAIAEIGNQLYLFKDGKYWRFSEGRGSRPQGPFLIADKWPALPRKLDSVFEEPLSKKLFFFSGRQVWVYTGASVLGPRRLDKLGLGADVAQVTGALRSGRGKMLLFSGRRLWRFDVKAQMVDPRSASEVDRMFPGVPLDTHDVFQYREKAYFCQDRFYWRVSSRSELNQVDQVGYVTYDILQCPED

COc1ccccc1Nc1nc2c(ccc3ncn(C)c32)s1 [Example 132, (2-Methoxy-phenyl)-(8-methyl-8H-imidazo[4′,5′:3,4]benzo[2,1-d]thiazol-2-yl)-amine.TFA]
Kd [1]: 26000 nM
IC50 [2]: 1400 nM
Kd [3]: > 95000 nM

COc1ccc(N)cc1Nc1nc2c(ccc3c2ncn3C)s1 [Example 79, 4-Methoxy-N^3-(6-methyl-6H-imidazo[4′,5′:3,4]-benzo[2,1-d]thiazol-2-yl)-benzene-1,3-diamine.HCl]
Kd [1]: 930 nM
IC50 [2]: 390 nM
Kd [3]: 3200 nM

COc1ccc(F)cc1Nc1nc2c(ccc3cnccc32)s1 [Example 99, (5-Fluoro-2-methoxy-phenyl)-thiazolo[4,5-f]isoquinolin-2-yl-amine.TFA]
Kd [1]: 3200 nM
IC50 [2]: 870 nM
Kd [3]: 20000 nM

COc1ccncc1Nc1nc2c(ccc3nc(C)n(C)c32)s1 [Example 154, N-(4-Methoxypyridin-3-yl)-7,8-dimethyl-8H-imidazo[4′,5′:5,6]benzo[1,2-d]thiazol-2-amine.TFA]
Kd [1]: 1100 nM
IC50 [2]: 630 nM
Kd [3]: 6600 nM

COc1ccc(C#N)cc1Nc1nc2c(ccc3ocnc32)s1 [Example 84, 4-Methoxy-3-(thiazolo[4′,5′:3,4]-benzo[2,1-d]oxazol-7-ylamino)-benzonitrile]
IC50 [2]: 750 nM

CCn1cc2c(ccc3sc(Nc4cc(S(C)(=O)=O)ccc4OC)nc32)n1 [Example 107, (7-Ethyl-7H-3-thia-1,6,7-triaza-as-indacen-2-yl)-(5-methanesulfonyl-2-methoxy-phenyl)-amine.TFA]
Kd [1]: 1500 nM
IC50 [2]: 580 nM
Kd [3]: 6800 nM

COc1ccc(S(C)(=O)=O)cc1Nc1nc2c(ccc3cnccc32)s1 [Example 97, (5-Methanesulfonyl-2-methoxy-phenyl)-thiazolo[4,5-f]isoquinolin-2-yl-amine.TFA]
Kd [1]: 1000 nM
IC50 [2]: 180 nM
Kd [3]: 4400 nM

CNS(=O)(=O)c1ccc(OC)c(Nc2nc3c(ccc4c3ncn4C)s2)c1 [Example 82, 4-Methoxy-N-methyl-3-(6-methyl-6H-imidazo[4′,5′:3,4]-benzo[2,1-d]thiazol-2-ylamino)-benzenesulfonamide.HCl]
Kd [1]: 1100 nM
IC50 [2]: 330 nM
Kd [3]: 1500 nM

COc1ccc(S(C)(=O)=O)cc1Nc1nc2c(ccc3c2cnn3CCC(C)C)s1 [Example 109, (5-Methanesulfonyl-2-methoxy-phenyl)-[6-(3-methyl-butyl)-6H-3-thia-1,6,7-triaza-as-indacen-2-yl]-amine.TFA]
Kd [1]: 2300 nM
IC50 [2]: ~2000 nM
Kd [3]: > 95000 nM

CC(C)Cc1ccc(C(N)=O)cc1Nc1nc2c(ccc3c2ncn3C)s1 [Example 88, 4-Isobutyl-3-(6-methyl-6H-imidazo[4′,5′:3,4]-benzo[2,1-d]thiazol-2-ylamino)-benzamide]
IC50 [2]: 3900 nM

Cn1cnc2c3nc(Nc4ccc(C#N)cc4OC(F)(F)F)sc3ccc21 [Example 86, 4-(6-Methyl-6H-imidazo[4′,5′:3,4]benzo[2,1-d]thiazol-2-ylamino)-3-trifluoromethoxy-benzonitrile.HCl]
Kd [1]: 680 nM
IC50 [2]: 650 nM
Kd [3]: > 95000 nM

Cc1nc2ccc3sc(Nc4cc(F)ccc4OC(C)C)nc3c2n1CC(F)(F)F [Example 141, (5-Fluoro-2-isopropoxy-phenyl)-[7-methyl-8-(2,2,2-trifluoro-ethyl)-8H-imidazo[4′,5′:3,4]benzo[2,1-d]thiazol-2-yl]-amine.TFA]
Kd [1]: 7500 nM
IC50 [2]: 1300 nM
Kd [3]: 33000 nM

Cn1ncc2c3nc(Nc4cc(C(N)=O)ccc4OC(F)(F)F)sc3ccc21 [Example 113, 3-(6-Methyl-6H-3-thia-1,6,7-triaza-as-indacen-2-ylamino)-4-trifluoromethoxy-benzamide.TFA]
Kd [1]: 1500 nM
IC50 [2]: 250 nM
Kd [3]: 140 nM

COc1ccc(S(N)(=O)=O)cc1Nc1nc2c(ccc3cnccc32)s1 [Example 104, 4-Methoxy-3-(thiazolo[4,5-f]isoquinolin-2-ylamino)-benzenesulfonamide.TFA]
Kd [1]: 6100 nM
Kd [3]: 7700 nM

COc1ccccc1Nc1nc2c(ccc3cnccc32)s1 [Example 100, (2-Methoxy-phenyl)-thiazolo[4,5-f]isoquinolin-2-yl-amine.TFA]
IC50 [2]: 1700 nM
Kd [3]: 76000 nM

COc1ccc(C#N)cc1Nc1nc2c(ccc3cnccc32)s1 [Example 151, 4-Methoxy-3-(thiazolo[4,5-f]isoquinolin-2-ylamino)-benzonitrile.TFA]
IC50 [2]: > 20000 nM
Kd [3]: > 95000 nM

CCn1c(C)nc2ccc3sc(Nc4cnccc4OC)nc3c21 [Example 152, 8-Ethyl-N-(4-methoxypyridin-3-yl)-7-methyl-8H-imidazo[4′,5′:5,6]benzo[1,2-d]thiazol-2-amine]
IC50 [2]: 550 nM

COc1cc([N+](=O)[O-])ccc1Nc1nc2c(ccc3c2ncn3C)s1 [Example 83, (2-Methoxy-4-nitro-phenyl)-(6-methyl-6H-imidazo[4′,5′:3,4]benzo[2,1-d]thiazol-2-yl)-amine.HCl]
IC50 [2]: ~100 nM

Cn1ccc2c3nc(Nc4cc(S(N)(=O)=O)ccc4OC(F)(F)F)sc3ccc21 [Example 162, 3-((6-methyl-6H-thiazolo[4,5-e]indol-2-yl)amino)-4-(trifluoromethoxy)benzenesulfonamide.HCl]
IC50 [2]: 640 nM
Kd [3]: 430 nM

CC(C)Oc1ccc(S(N)(=O)=O)cc1Nc1nc2c(ccc3c2ccn3C)s1 [Example 161, 4-isopropoxy-3-((6-methyl-6H-thiazolo[4,5-e]indol-2-yl)amino)benzenesulfonamide.HCl]
IC50 [2]: 340 nM
Kd [3]: 480 nM

COc1ccc(S(C)(=O)=O)cc1Nc1nc2c(ccc3c2ccn3C)s1 [Example 163, N-(2-methoxy-5-(methylsulfonyl)phenyl)-6-methyl-6H-thiazolo[4,5-e]indol-2-amine.HCl]
IC50 [2]: 110 nM
Kd [3]: 420 nM
